pIC50, pKi: −log10 of the molar value.

The target in test [1] is T1, Protein-S-isoprenylcysteine O-methyltransferase (Saccharomyces cerevisiae S288c, UniProt P32584).
T1 sequence (P32584 whole entry): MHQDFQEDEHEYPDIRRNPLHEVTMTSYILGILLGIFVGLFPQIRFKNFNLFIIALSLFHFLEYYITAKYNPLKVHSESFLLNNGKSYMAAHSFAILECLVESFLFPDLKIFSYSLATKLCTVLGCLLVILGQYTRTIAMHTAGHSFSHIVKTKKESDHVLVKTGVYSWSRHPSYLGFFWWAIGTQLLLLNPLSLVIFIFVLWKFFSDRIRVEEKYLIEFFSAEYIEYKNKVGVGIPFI
Put plainly: Inhibitory concentration against isoprenyl-cysteine carboxyl methyltransferase.

Test [2] concerns the target T1, Protein-S-isoprenylcysteine O-methyltransferase. Put plainly: Inhibitory concentration against isoprenyl-cysteine carboxyl methyltransferase by Casey method; Range 7 - 14 uM.

With `CC(=O)NC(C[S+]([O-])C/C=C(\C)CC/C=C(\C)CC/C=C(\C)CCC=C(C)C)C(=O)O` (stereo not given), the pKi (usually the negative decadic logarithm of the Ki, by convention in mol/L) in test [1] is 4.88. `CC(=O)N[C@@H](CSC/C=C(\CC=C(C)C)CC/C=C(\C)CCC=C(C)C)C(=O)O`: in test [2], the pIC50 (usually the negative decadic logarithm of the IC50, by convention in mol/L) is 4.85. In test [1], this molecule gave a pIC50 of 4.36 and a pKi of 4.77.

As for `CC(C)=CCC/C(C)=C/CC/C(C)=C/CSCC(=O)O` [FARNESYLTHIOACETIC ACID], the pKi in test [1] was 5.34.
